Test system: SCC38 cells
Experiment: Co-localization by co-staining with MitoTracker Red, fluorescence microscopy of live cells
Format: cell-based, human
Details: compound 4 50 nM, MitoTracker® Red 25 nM, 30 minutes
Procedure: The cell assays were carried out on two human cell lines: SCC38 and HeLa. The SCC38 line is derived from human laryngeal epidermoid carcinoma patients, while HeLa, the first human cell line established in culture, is derived from cervical cancer. The culture medium used for both cell lines was DMEM (Dulbecco's Modified Eagle's Medium) supplemented with 10% of fetal bovine serum (FBS), 100 U/mL of penicillin, 200 µg/mL of streptomycin, 100 µmol/L of non-essential amino acids and 2 mmol/L of glutamine. The cultures were incubated at 37 °C and 5% of CO2.
These cell lines were stained with the fluorescent probes synthesized following the following protocol: 30,000-50,000 SCC38 cells were plated on 24-well glass-bottomed plates and cultured to 70% confluence. The culture medium was then removed from the well and washed at least three times with DMEM medium without additives. Next, 1 mL of DMEM and the corresponding fluorescent compound was added to the well. The cells were incubated at 37 °C for 30 minutes, after which the medium was removed and newly washed with DMEM. Lastly, complete medium was added and the cells were observed under the microscope. Microscopy analysis was performed using a Zeiss Axio Observer Z1 microscope with AxioCam MRM and ApoTome 2 (Carl Zeiss, Germany) with different 40X 63X oil immersion objectives. The cells were also stained with MitoTracker® Red CMXRos (Thermo Fisher), following the manufacturer's instructions, with the aim of carrying out comparative studies with the new fluorescent markers synthesized herein. Initially, both compounds 3 and 4 were used at a concentration of 50 nM, and staining time was also 30 minutes.
In order to confirm the specificity of the mitochondrial labeling, co-localization studies were carried out by co-staining with the commercial mitochondrial marker MitoTracker® Red in the cell line. Compound 4 was used at a concentration of 50 nM and MitoTracker® Red at 25 nM. Both compounds were added simultaneously and incubated for 30 minutes.

How did the “location of the stain in the mitochondria” value (co-staining) turn out when `CC1=CC(C)=[N+]2C1=C(c1c(C)cc(C)cc1C)c1c(C)cc(C)n1[B-]21OC(=O)C[C@H](C[N+](C)(C)C)O1` (stereo partly drawn) [Compound 4] was run?
Its value is “preferably located in its interior (the mitochondrial matrix)”.

And the “co-localization with MitoTracker® Red” value (added simultaneously)?
The value was “good co-localization”.

What about the cytotoxic effects (simultaneous co-staining) of the same compound?
Its cytotoxic effects is “without interferences or cytotoxic effects”.
